Laboratory results reported in article PMC7300217, “Surfactin Like Broad Spectrum Antimicrobial Lipopeptide Co-produced With Sublancin From Bacillus subtilis Strain A52: Dual Reservoir of Bioactives” (Frontiers in Microbiology, 2020).

Experiment: pH stability, residual antimicrobial activity
Format: physicochemical
Conditions: for Residual activity (%), pH 2.0: pH 2.0 (10 mM HCl or NaOH)
Description: Sensitivity of purified peptides toward temperature, pH, and non-specific proteases was confirmed by performing bioassays. The pH stability was determined by adjusting the pH 2.0–12.0 of peptide aliquots (using 10 mM HCl or NaOH) and incubating for 4 h at room temperature. Samples were neutralized to pH 7.0 before processing for antimicrobial assay. To determine temperature susceptibility, peptides were incubated at different temperatures ranging from 37 to 100°C for 1 h and 121°C for 15 min and residual antimicrobial activity was determined at RT by well diffusion assay. Proteolytic enzymes trypsin and proteinase K (Sigma, United States) were used at three different concentrations (0.1, 1.0, and 5.0 mg/ml) to observe their effect on the peptide. The enzyme solutions were prepared in 50 mM phosphate buffer (pH 7.0). All reactions were performed at 37°C for 6 h followed by deactivation of enzyme by heating the solution in boiling water for 5 min before performing the activity assay.

With “Glu^1-Leu/Ile^2-Leu^3-Val^4-Asp^5-Leu^6-Leu/Ile^7 and a β-OH hexadecane fatty acid chain (lariat or depsi) [Lipopeptide A52, cyclic surfactin-like lipopeptide, 7 amino acids and C16 β-hydroxy fatty acid, 1061.9 Da, from B. subtilis strain A52]” the “Residual activity (%), pH 2.0” value (4h/ 25°C, neutralized to pH 7.0 before antimicrobial assay, listed as Lipopeptide) was “Nil”, the “Residual activity (%), pH 2.0” value (4h/ 25°C, neutralized to pH 7.0 before antimicrobial assay, listed as surfactin-like lipopeptide) was “complete loss in activity” and the “Residual activity (%), pH 4.0” value (pH 4.0 (10 mM HCl or NaOH), 4h/ 25°C, neutralized to pH 7.0 before antimicrobial assay) was 100%. The “Residual activity (%), pH 6.0” value (pH 6.0 (10 mM HCl or NaOH), 4h/ 25°C, neutralized to pH 7.0 before antimicrobial assay) was 100%, the “Residual activity (%), pH 7.0” value (pH 7.0, 4h/ 25°C) was 100% and the “Residual activity (%), pH 8.0” value (pH 8.0 (10 mM HCl or NaOH), 4h/ 25°C, neutralized to pH 7.0 before antimicrobial assay) was 100%. For the same substance, the “Residual activity (%), pH 10.0” value (pH 10.0 (10 mM HCl or NaOH), 4h/ 25°C, neutralized to pH 7.0 before antimicrobial assay) was 100% and the “Residual activity (%), pH 12.0” value (pH 12.0 (10 mM HCl or NaOH), 4h/ 25°C, neutralized to pH 7.0 before antimicrobial assay) was “Nil”.
